The NIST ThermoML archive (doi:10.1021/je501141e)
Numbers after ± are expanded uncertainties.

Test: xn = mol fraction of the nth substance listed
Details: 100 kPa, Liquid; for viscosity: Concentric cylinders viscometry; for speed of sound: Frequency=200 MHz, Sing-around technique in a fixed-path interferometer; for mass density: Vibrating tube method

CC(CC(C)(C)C)CC(C)(C)CC(C)(C)C (stereo not given) [2,2,4,4,6,8,8-heptamethylnonane] + CC(CC(C)(C)C)CC(C)(C)C
Details	mass density [kg/m3]	speed of sound [m/s]	viscosity [mPa·s]
293.15 K, x1 = 0.0772	749.05 ± 0.21	1211.7 ± 0.9	1.43 ± 0.02
293.15 K, x1 = 0.1584	752.89 ± 0.21	1219.4 ± 0.9	1.55 ± 0.02
293.15 K, x1 = 0.2439	756.76 ± 0.21	1226.7 ± 0.9	1.7 ± 0.02
293.15 K, x1 = 0.334	760.65 ± 0.21	1234.8 ± 0.9	1.87 ± 0.02
293.15 K, x1 = 0.4293	764.68 ± 0.22	1242.9 ± 1	2.08 ± 0.02
293.15 K, x1 = 0.5302	768.56 ± 0.22	1251.1 ± 1	2.29 ± 0.02
293.15 K, x1 = 0.6371	772.47 ± 0.23	1259.6 ± 1	2.56 ± 0.03
293.15 K, x1 = 0.7506	776.56 ± 0.23	1268.2 ± 1	2.86 ± 0.03
293.15 K, x1 = 0.8711	780.52 ± 0.24	1276.9 ± 1	3.25 ± 0.03
293.15 K, x1 = 1	–	–	3.71 ± 0.03
303.15 K, x1 = 0.0772	741.82 ± 0.21	1173 ± 0.9	1.2 ± 0.02
303.15 K, x1 = 0.1584	745.73 ± 0.21	1180.9 ± 0.9	1.3 ± 0.02
303.15 K, x1 = 0.2439	749.65 ± 0.21	1188.4 ± 0.9	1.42 ± 0.02
303.15 K, x1 = 0.334	753.6 ± 0.22	1196.6 ± 0.9	1.55 ± 0.02
303.15 K, x1 = 0.4293	757.69 ± 0.22	1205 ± 0.9	1.71 ± 0.02
303.15 K, x1 = 0.5302	761.62 ± 0.23	1213.3 ± 1	1.88 ± 0.02
303.15 K, x1 = 0.6371	765.59 ± 0.23	1221.9 ± 1	2.08 ± 0.02
303.15 K, x1 = 0.7506	769.74 ± 0.24	1230.8 ± 1	2.31 ± 0.02
303.15 K, x1 = 0.8711	773.76 ± 0.24	1239.6 ± 1	2.59 ± 0.03
303.15 K, x1 = 1	–	–	2.93 ± 0.03
313.15 K, x1 = 0.0772	734.56 ± 0.21	1135 ± 0.9	1.02 ± 0.02
313.15 K, x1 = 0.1584	738.53 ± 0.21	1143 ± 0.9	1.1 ± 0.02
313.15 K, x1 = 0.2439	742.51 ± 0.22	1150.7 ± 0.9	1.2 ± 0.02
313.15 K, x1 = 0.334	746.52 ± 0.22	1159 ± 0.9	1.3 ± 0.02
313.15 K, x1 = 0.4293	750.67 ± 0.22	1167.6 ± 0.9	1.43 ± 0.02
313.15 K, x1 = 0.5302	754.66 ± 0.23	1176.1 ± 1	1.56 ± 0.02
313.15 K, x1 = 0.6371	758.69 ± 0.23	1184.8 ± 1	1.72 ± 0.02
313.15 K, x1 = 0.7506	762.9 ± 0.24	1193.9 ± 1	1.9 ± 0.02
313.15 K, x1 = 0.8711	766.98 ± 0.24	1202.8 ± 1	2.12 ± 0.02
313.15 K, x1 = 1	–	–	2.37 ± 0.03
323.15 K, x1 = 0.0772	727.27 ± 0.21	1097.7 ± 0.9	0.882 ± 0.021
323.15 K, x1 = 0.1584	731.3 ± 0.22	1105.9 ± 0.9	0.947 ± 0.021
323.15 K, x1 = 0.2439	735.34 ± 0.22	1113.7 ± 0.9	1.03 ± 0.02
323.15 K, x1 = 0.334	739.41 ± 0.22	1122.2 ± 0.9	1.11 ± 0.02
323.15 K, x1 = 0.4293	743.63 ± 0.23	1131 ± 0.9	1.21 ± 0.02
323.15 K, x1 = 0.5302	747.69 ± 0.23	1139.7 ± 0.9	1.32 ± 0.02
323.15 K, x1 = 0.6371	751.78 ± 0.23	1148.5 ± 1	1.44 ± 0.02
323.15 K, x1 = 0.7506	756.05 ± 0.24	1157.7 ± 1	1.59 ± 0.02
323.15 K, x1 = 0.8711	760.19 ± 0.25	1166.8 ± 1	1.76 ± 0.02
323.15 K, x1 = 1	–	–	1.95 ± 0.02
333.15 K, x1 = 0.0772	719.94 ± 0.22	1061.1 ± 0.8	0.768 ± 0.021
333.15 K, x1 = 0.1584	724.04 ± 0.22	1069.5 ± 0.9	0.822 ± 0.021
333.15 K, x1 = 0.2439	728.14 ± 0.22	1077.5 ± 0.9	0.889 ± 0.021
333.15 K, x1 = 0.334	732.28 ± 0.23	1086.1 ± 0.9	0.956 ± 0.021
333.15 K, x1 = 0.4293	736.56 ± 0.23	1095.1 ± 0.9	1.04 ± 0.02
333.15 K, x1 = 0.5302	740.68 ± 0.23	1103.9 ± 0.9	1.13 ± 0.02
333.15 K, x1 = 0.6371	744.84 ± 0.24	1112.9 ± 1	1.23 ± 0.02
333.15 K, x1 = 0.7506	749.18 ± 0.24	1122.3 ± 1	1.34 ± 0.02
333.15 K, x1 = 0.8711	753.38 ± 0.25	1131.6 ± 1	1.48 ± 0.02
333.15 K, x1 = 1	–	–	1.64 ± 0.02
343.15 K, x1 = 0.0772	712.57 ± 0.22	1025.2 ± 0.8	0.676 ± 0.021
343.15 K, x1 = 0.1584	716.73 ± 0.22	1033.7 ± 0.9	0.721 ± 0.021
343.15 K, x1 = 0.2439	720.9 ± 0.23	1041.9 ± 0.9	0.778 ± 0.021
343.15 K, x1 = 0.334	725.11 ± 0.23	1050.7 ± 0.9	0.834 ± 0.021
343.15 K, x1 = 0.4293	729.46 ± 0.23	1059.8 ± 0.9	0.906 ± 0.021
343.15 K, x1 = 0.5302	733.65 ± 0.24	1068.8 ± 0.9	0.975 ± 0.021
343.15 K, x1 = 0.6371	737.87 ± 0.24	1077.9 ± 1	1.06 ± 0.02
343.15 K, x1 = 0.7506	742.28 ± 0.24	1087.5 ± 1	1.15 ± 0.02
343.15 K, x1 = 0.8711	746.55 ± 0.25	1096.9 ± 1	1.26 ± 0.02
343.15 K, x1 = 1	–	–	1.39 ± 0.02
353.15 K, x1 = 0.0772	705 ± 0.2	–	0.6 ± 0.021
353.15 K, x1 = 0.1584	709.3 ± 0.2	–	0.638 ± 0.021
353.15 K, x1 = 0.2439	713.4 ± 0.2	–	0.687 ± 0.021
353.15 K, x1 = 0.334	717.7 ± 0.2	–	0.734 ± 0.021
353.15 K, x1 = 0.4293	722.1 ± 0.2	–	0.794 ± 0.021
353.15 K, x1 = 0.5302	726.4 ± 0.2	–	0.852 ± 0.021
353.15 K, x1 = 0.6371	730.8 ± 0.2	–	0.923 ± 0.021
353.15 K, x1 = 0.7506	735.1 ± 0.3	–	0.998 ± 0.021
353.15 K, x1 = 0.8711	739.5 ± 0.3	–	1.09 ± 0.02
353.15 K, x1 = 1	–	–	1.19 ± 0.02
363.15 K, x1 = 0.0772	697.5 ± 0.2	–	0.538 ± 0.021
363.15 K, x1 = 0.1584	701.8 ± 0.2	–	0.57 ± 0.021
363.15 K, x1 = 0.2439	706.1 ± 0.2	–	0.613 ± 0.021
363.15 K, x1 = 0.334	710.4 ± 0.2	–	0.653 ± 0.021
363.15 K, x1 = 0.4293	714.8 ± 0.2	–	0.704 ± 0.021
363.15 K, x1 = 0.5302	719.2 ± 0.2	–	0.753 ± 0.021
363.15 K, x1 = 0.6371	723.7 ± 0.3	–	0.813 ± 0.021
363.15 K, x1 = 0.7506	728.1 ± 0.3	–	0.88 ± 0.021
363.15 K, x1 = 0.8711	732.5 ± 0.3	–	0.954 ± 0.021
363.15 K, x1 = 1	–	–	1.04 ± 0.02
373.15 K, x1 = 0.0772	689.9 ± 0.2	–	0.487 ± 0.021
373.15 K, x1 = 0.1584	694.2 ± 0.2	–	0.515 ± 0.021
373.15 K, x1 = 0.2439	698.6 ± 0.2	–	0.553 ± 0.021
373.15 K, x1 = 0.334	703.1 ± 0.2	–	0.586 ± 0.021
373.15 K, x1 = 0.4293	707.5 ± 0.2	–	0.63 ± 0.021
373.15 K, x1 = 0.5302	712.1 ± 0.2	–	0.673 ± 0.021
373.15 K, x1 = 0.6371	716.7 ± 0.3	–	0.723 ± 0.021
373.15 K, x1 = 0.7506	721.1 ± 0.3	–	0.78 ± 0.021
373.15 K, x1 = 0.8711	725.6 ± 0.3	–	0.841 ± 0.021
373.15 K, x1 = 1	–	–	0.913 ± 0.021
